Results reported in patent US11369568B2, “Microparticles comprising a sulphur-containing compound” (NOVABIOTICS LIMITED, priority 2016, dated 2022).

Tests used:
[1] = Mouse weights recorded before and after infection; assay type: in vivo; conditions: infected CD1 mice, Upperton product study (FIG. 6)
Protocol: (§1) Male CD1 mice (n =6 for treatment groups, plus five in pre-treatment group, totalling 35 mice) were used in this study. On day −4, the mice were immunosuppressed/pre-conditioned with 200 mg/kg cyclophosphamide intraperitoneally; and with 150 mg/kg cyclophosphamide intraperitoneally on day-1. An infection was established with P. aeruginosa ATCC27853, with an inoculum of 5×10^6 cfu/ml, administered intranasally in a volume of 40 μl following anaesthetisation with a ketamine/xylazine anaesthetic cocktail for 15 minutes, for the Lynovex prepared in lactose study, and an inoculum of 4×10^6 for the Upperton Lynovex product.
In a different study, Lynovex was administered at the following doses: 3 mg 5% Lynovex and 3 mg 10% Lynovex. Lynovex in combination with Tobramycin as follows: 3 mg 5% Lynovex+Tobramycin 0.188 mg in 1.5 mg vehicle, 3 mg 10% Lynovex+Tobramycin 0.188 mg in 1.5 mg Vehicle (mannitol-based, provided by Upperton) and a Tobramycin only control (0.188 mg/dose in lactose vehicle). The treatments were administered once approximately 10 minutes after infection.
Additionally, mouse weights were recorded before and after infection. Mice treated with vehicle, Lynovex monotherapy or Tobramycin monotherapy lost weight following infection. […]

P. aeruginosa ATCC27853 = assay: Mouse IN neutropenic lung burden model, Lynovex/Lactose study; assay type: in vivo, Pseudomonas aeruginosa; conditions: CD1 mice, 24 h post-infection
Protocol: Animals were immunosuppressed/pre-conditioned with either 200 mg/kg or 150 mg/kg cyclophosphamide. Lynovex, chemical name cysteamine, and vehicle were either prepared either as Lynovex and lactose vehicle, or Lynovex and mannitol-based vehicle (both provided by Upperton (Upperton product)). These were prepared for treatment and vehicle-control alone respectively, and in combination. Tobramycin was prepared as an inhalation formulation in lactose. All treatments were administered using a Penn Century device. Phosphate buffered saline (PBS) and Pseudomonas selective agar were required for bacterial tissue burden.
as §1
Treatment. All treatments were administered intratracheally using a Penn Century device.
Lynovex (cysteamine) was administered at 1.5 mg alone, and in combination with lactose at the following concentrations: Lynovex 0.75 mg+2.25 mg lactose powder, Lynovex 1.5 mg+1.5 mg lactose powder, Lynovex 2.25 mg+0.75 mg, along with a vehicle only control of 3 mg lactose. In addition, Tobramycin at 188 μg/dose was administered, as an inhaled formulation which was mixed with lactose to aid measurement. The treatments were administered approximately 5 minutes after infection.
The lung tissue burden of each animal, at the clinical end point of 24 h post-infection, was determined. The lungs were homogenised in 2 ml PBS, serially diluted in PBS and plated onto Pseudomonas selective agar before quantification after 24-48 h at 37° C.

Row | SMILES | mouse weight following infection [1] | lung burden compared with vehicle-treated mice (P. aeruginosa ATCC27853; 0.188 mg inhalation formulation, intratracheal, P=0.0097 Kruskal Wallis test) | lung burden compared to vehicle (P. aeruginosa ATCC27853; 1.5 mg intratracheal, P=0.0072) | lung burden compared to vehicle (P. aeruginosa ATCC27853; 2.25 mg intratracheal, P=0.0349)
1 | NC[C@H]1O[C@H](O[C@H]2[C@H](O)[C@@H](O[C@H]3O[C@H](CO)[C@@H](O)[C@H](N)[C@H]3O)[C@H](N)C[C@@H]2N)[C@H](N)C[C@@H]1O [Tobramycin] | lost weight | statistically significant reduction in lung burden | – | –
2 | NCCS [Lynovex, cysteamine] | – | – | reduced the lung burden | reduced the lung burden
